# Where two headings read alike, the source gives them in different places.
# Assays:
# [1] = test system: Wolbachia in C6/36 (wAlbB) cells; assay: Confirmatory re-assessment in the insect cell screen (cell assay EC50); type: cell-based, Wolbachia pipientis wAlbB (in Aedes albopictus C6/36 cells); conditions: insect cell screen, re-sourced or re-synthesised samples
# Excerpt: To further validate the hit molecules from these 9 clusters, samples were sourced either from the AstraZeneca compound inventory or through re-synthesis. All 18 samples were characterised by nuclear magnetic resonance (NMR) and mass spectroscopy to confirm their chemical structures and by HPLC/LCMS to establish their purity (Supplementary Table 5 and Supplementary Data 1). These samples were also subject to confirmatory re-assessment in both the insect cell screen and Mf assays for anti-Wolbachia potency alongside confirmation of DMPK properties (LogD7.4, aqueous solubility in pH 7.4 PBS, human microsomal turnover, rat hepatocyte turnover and human plasma protein binding) (Fig. 4, Supplementary Figure 1 and Supplementary Table 4).
# (§1) On day 0, a single cryovial was recovered and the cells washed before being transferred to a T225 cm^2 flask. After a 7-day recovery Wolbachia infection level (quality control (QC)) was checked by SYTO®11 DNA staining of both the host cell nuclei and intracellular Wolbachia. The end-point read out from the Operetta® high content imaging system (Perkin Elmer) was the percentage of cells infected with Wolbachia. This was obtained from cytoplasm texture analysis by the associated Harmony® software. Cells with a >50% of the population infected with Wolbachia were classed as having a good Wolbachia level and therefore used for screening through addition of 2000 cells per well into assay ready 384-well plates containing the test compounds. […] Each plate included on-board controls; vehicle/DMSO (total/maximum Wolbachia signal) or doxycycline 5 µM (null/minimum Wolbachia signal), resulting in single shot screening of 352 compounds per plate for the primary screen. […] QC plates were also created including full columns of the following controls; DMSO (total/max), 5 μM doxycycline (null/min), as well as 50 nM doxycycline (reference/medium Wolbachia signal). Daily batches contained ~150 compound plates in addition to the QC plates. Each compound plate was foil sealed before incubation for 7 days at 26 °C, 95% humidity and atmospheric air.
# [2] = Human plasma protein binding; type: in vitro ADME; conditions: for fraction unbound: plasma
# Excerpt: (§2) The DMPK data used for triaging compounds, including LogD7.4, aqueous solubility, plasma protein binding, microsome and hepatocyte clearance measurements, were generated using the standard AstraZeneca UK high-throughput platform[37],[38].
# [3] = Human microsome clearance; type: in vitro ADME; conditions: for microsomal CLint: human microsomes
# Excerpt: as §2
# Rat hepatocyte clearance = type: in vitro ADME
# Excerpt: as §2
# [4] = Aqueous solubility in pH 7.4 PBS; type: physicochemical; conditions: for solubility: PBS pH 7.4, aqueous buffer, pH 7.4 PBS, read-out: Aqueous solubility in pH7.4 PBS
# Excerpt: as §2
# THP-1 cells = assay: Mammalian cell viability counter-screen (CellTiter-Blue); type: cell-based, human; conditions: 48 h, read-out: HTS IC50 mammalian toxicity
# Experimental: The human monocytic THP-1 cell line (ATCC® TIB-202) used for mammalian cytotoxicity evaluation was routinely cultured in roller bottles. Growth media consisted of RPMI 1640 supplemented with 10% FBS and 2 mM L-glutamine. Cells were maintained at 37 °C with 95% humidity in 5% CO2 in a shaking incubator.
# All compounds selected for secondary IC50 screen were tested in parallel for mammalian cell viability using the CellTiter-Blue® Cell Viability Assay. THP1 cells were removed from culture and plated at 1 × 10^4 cells/well (40 µl) into 384-well assay ready plates and incubated at 37 °C, 5% CO2 for 48 h at 95% humidity. After the addition of CellTiter-Blue Viability reagent (8 µl of a 1:6 dilution) the assay plates were incubated for a further 2 h before fluorescence detected using a PerkinElmer EnVision™ plate reader.
# [5] = test system: Wolbachia within Brugia malayi Mf; assay: B. malayi microfilarial (Mf) in vitro anti-Wolbachia assay (wsp:gst qPCR); type: cell-based; conditions: for EC50: B. malayi Mf, 6 days, read-out: Mf EC50
# Experimental: The Mf were obtained by peritoneal lavage, using a catheter, of gerbils (Meriones unguiculatus) harbouring a patent infection of B. malayi. Mf were purified using a PD-10 desalting column (Fisher), centrifuged (311 RCF for 5 min at room temperature) before the addition of 8000 Mf/well of a 96-well plate (100 µl per well) in complete media consisting of RPMI supplemented with 10% FBS, 1% penicillin streptomycin and 1% amphotericin B. […] Each plate contained doxycycline (5 µM) and DMSO controls. After incubation at 37 °C for 6 days in 5% CO2, visual assessment of Mf motility was performed and scored from 0 to 4 per well (where 0 = no movement and 4 = highly motile). DNA extraction per sample was performed using the QIAmp DNA Mini Kit before quantitative PCR was performed to obtain the ratio of Wolbachia Surface Protein gene copy number (wsp) to Glutathione S-Transferase gene copy number (gst)[36]. The DNA was amplified using the primers as indicated in Supplementary Table 6.
# The wsp:gst ratio data allowed for normalisation of the Wolbachia level to the Mf biomass for each well. The change in wsp:gst for each compound compared to the DMSO control was calculated before normalisation to the onboard doxycycline control to allow for inter-assay comparison.
# [6] = test system: Wolbachia in C6/36 (wAlbB) cells; assay: Secondary concentration response HTS (IC50) anti-Wolbachia screen in C6/36 (wAlbB) insect cells; type: cell-based, Wolbachia pipientis wAlbB (in Aedes albopictus C6/36 cells); conditions: 7-day incubation, 10-point concentration range
# Experimental: Initially C6/36 (wAlbB) cells (insect cells stably infected with the Wolbachia target) from a single cryopreserved batch were recovered over 7 days prior to plating into 384-well assay ready plates (containing the test compounds), using a semi-automated process allowing for daily batches of ~150 plates, set up 4 days per week for 8 weeks. After a 7-day incubation period with the test compounds the plates were moved into the second fully automated stage (using the Agilent Technologies BioCel system) involving formaldehyde fixation, DNA staining of the insect cell nuclei (Hoechst) for toxicity analysis and antibody staining specific to the intracellular Wolbachia (wBmPAL primary antibody and far-red secondary antibody). In the final stage the fixed and stained plates from stage 2 were processed through automated data acquisition (High Res Biosolutions system, incorporating EnVision™ and acumen® plate readers). This industry standardised assay was then used to screen AstraZeneca’s full library of 1.3 million compounds within 10 weeks. In total this HTS included 30 × 3 week assays covering 3835 × 384-well plates. This primary HTS generated 20,255 hits defined as >80% reduction in Wolbachia with <60% toxicity to the host insect cell (eliminating false positives). This represents an overall hit rate of 1.56%. These compounds are depicted in chemical space in Fig. 2 (black points)[21].
# The mosquito (Aedes albopictus) derived cell line C6/36 (ATCC® CRL 1660), stably infected with Wolbachia pipientis wAlbB (C6/36(wAlbB)), was maintained in Leibovitz L15 medium containing 2 mM L-glutamine, 1% nonessential amino acids, 2% tryptose phosphate broth and 20% heat-inactivated foetal bovine serum (FBS) at 26 °C[18]. This screen exclusively used cells from the large-scale cryopreserved batch produced as part of this campaign by culturing the cells at scale before cryopreservation (90% FBS and 10% DMSO). This produced a cell bank of 190 × 1 ml cryovials containing 3 × 10^7 cells per vial.
# as §1
# After 7 days of drug incubation, the plates were loaded into the fully automated BioCel system which performed the following additions; fixation and DNA staining (1.8% formaldehyde + 0.6 µg/ml Hoechst 33342, 20 min), permeabilisation (80 μl of PBS + 0.25% Triton-X 100, 30 min), blocking (PBS + 6% BSA, 40 min), overnight incubation in the Wolbachia-specific anti-wBmPAL primary antibody[34] […]
# LogD7.4 = type: physicochemical; conditions: pH 7.4
# Excerpt: as §2
SMILES,fraction unbound [2],microsomal CLint ([3]; human) [µL/min/mg],Rat hepatocytes CLint (Rat hepatocyte clearance) [µl/min/1x106 cells],solubility [4] [µM],"EC50 ([5]; Brugia malayi, 144 h) [nM]",logD (LogD7.4),Human plasma protein binding [2] [%],"Human microsome CLint ([3]; human, microsomes) [µL/min/mg]",EC50 [5] [nM],LogD 7.4 (LogD7.4),"Metabolic stability (in words) ([3]; in vitro, system not given)",Solubility (in words) [4],Human microsomal stability (in words) [3],"EC50 ([1]; Wolbachia, C6/36) [nM]",IC50 (THP-1 cells; Homo sapiens) [nM],"IC50 ([6]; Wolbachia, 168 h) [nM]",EC50 [1] [nM],IC50 (THP-1 cells) [nM],IC50 [6] [nM],Mf in vitro potency (in words) [5]
"COCc1ccc(C(=O)Nc2ccc(CNC(=O)c3ccnn3C)cc2C)nc1 [7B, 5-(methoxymethyl)-N-(2-methyl-4-((1-methyl-1H-pyrazole-5-carboxamido)methyl)phenyl) picolinamide]",–,–,25.0,–,–,–,99.5,40.7,2220,2.3,–,–,–,–,–,–,3070,> 30600,2480,–
"Cc1nc(C(=O)NC(C)c2cccc3ccccc23)c(NC(=O)Cc2ccccc2)[nH]1 (stereo not shown) [5B, 2-methyl-N-(1-(naphthalen-1-yl)ethyl)-5-(2-phenylacetamido)-1H-imidazole-4-carboxamide]",0.011,101,71.1,22,294,4.6,–,–,–,–,–,–,–,68,> 30600,158,–,–,–,–
"CN(Cc1cccc(Cl)c1)S(=O)(=O)c1ccc2c(c1)C(=O)NCC2 [8A, N-(3-chlorobenzyl)-N-methyl-1-oxo-1,2,3,4-tetrahydroisoquinoline-7-sulfonamide]",0.05,> 300,> 300,16,2700,2.7,–,–,–,–,–,–,–,515,> 30600,486,–,–,–,–
"COc1ccc(C(=O)Nc2ccc(CNC(=O)c3ccnn3C)cc2C)cn1 [7A, 6-methoxy-N-(2-methyl-4-((1-methyl-1H-pyrazole-5-carboxamido)methyl)phenyl)nicotinamide]",0.003,< 3,< 1,100,~1160,2,–,–,–,–,high,good,–,1140,23200,1270,–,–,–,–
"O=C(NCCCn1ccnc1)NC1C(=O)Nc2ccccc2SC1c1cc(F)ccc1F (stereo not shown) [9B, 1-(3-(1H-imidazol-1-yl)propyl)-3-(2-(2,5-difluorophenyl)-4-oxo-2,3,4,5-tetrahydrobenzo[b][1,4]thiazepin-3-yl)urea]",0.016,> 300,171.6,43,2700,3.8,–,–,–,–,–,–,–,483,> 30600,475,–,–,–,–
"Cc1nccc(N2CCC(C(=O)N3CCCN(S(=O)(=O)c4ccc(Br)cc4)CC3)CC2)n1 [1B, (4-((4-bromophenyl)sulfonyl)-1,4-diazepan-1-yl)(1-(2-methylpyrimidin-4-yl)piperidin-4-yl)methanone]",0.23,> 300,24.8,217,~296,2.7,–,–,–,–,–,–,–,268,> 30600,111,–,–,–,–

# The next lines start with results.
fraction unbound [2],microsomal CLint ([3]; human) [µL/min/mg],Rat hepatocytes CLint (Rat hepatocyte clearance) [µl/min/1x106 cells],solubility [4] [µM],"EC50 ([5]; Brugia malayi, 144 h) [nM]",logD (LogD7.4),Human plasma protein binding [2] [%],"Human microsome CLint ([3]; human, microsomes) [µL/min/mg]",EC50 [5] [nM],LogD 7.4 (LogD7.4),"Metabolic stability (in words) ([3]; in vitro, system not given)",Solubility (in words) [4],Human microsomal stability (in words) [3],SMILES,"EC50 ([1]; Wolbachia, C6/36) [nM]",IC50 (THP-1 cells; Homo sapiens) [nM],"IC50 ([6]; Wolbachia, 168 h) [nM]",EC50 [1] [nM],IC50 (THP-1 cells) [nM],IC50 [6] [nM],Mf in vitro potency (in words) [5]
0.4,3.5,22.9,756,> 5000,1.6,–,–,–,–,–,–,–,"Cc1csc(CN(C)c2nc3c(s2)C(=O)NCCC3)n1 [6B, 2-(methyl((4-methylthiazol-2-yl)methyl)amino)-5,6,7,8-tetrahydro-4H-thiazolo[5,4-c]azepin-4-one]",897,> 30600,594,–,–,–,–
0.088,11.3,55.1,26,447,2.9,–,–,–,–,–,acceptable,very good,"O=C1NCCCc2nc(N3CCN(c4ccccc4F)CC3)sc21 [6A, 2-(4-(2-fluorophenyl)piperazin-1-yl)-5,6,7,8-tetrahydro-4H-thiazolo[5,4-c]azepin-4-one]",2560,> 30600,684,–,–,–,lower potency than representatives 4A or 5A
0.034,> 300,> 300,6,> 5000,3.1,–,–,–,–,–,–,–,"CN(Cc1cccc(Br)c1)S(=O)(=O)c1ccc2c(c1)C(=O)NCC2 [8B, N-(3-bromobenzyl)-N-methyl-1-oxo-1,2,3,4-tetrahydroisoquinoline-7-sulfonamide]",873,> 30600,535,–,–,–,–
0.2,35.5,218.6,> 1000,~223,2.5,–,–,–,–,–,–,–,"CN(CC1CCCC(=O)N1)c1cc(OCc2ccccc2)nc(-c2nccn2C)n1 (stereo not shown) [3B, 6-(((6-(benzyloxy)-2-(1-methyl-1H-imidazol-2-yl)pyrimidin-4-yl)(methyl)amino)methyl)piperidin-2-one]",645,> 30600,510,–,–,–,–

# Reference: PMC6315057, “Industrial scale high-throughput screening delivers multiple fast acting macrofilaricides” (Nature Communications, 2019)
